Like-named read-outs stand apart in the source and are kept apart here. *1 amine or outer side, *2 acyl side, *3 side chain or, on linkers, in order; H or OH if unused. Where a SMILES comes first, the peptide text is derived from it. Bridges are numbered along the chain shown (N, C = ends). [ ]: non-standard residue; d: D form. The star is where a group is joined. ξ: configuration not given here. X1 = COc1cc(C[C@H](N[*:1])C(=O)[*:2])ccc1C(=O)NO; NMePhe(3-Cl) = CN[C@@H](Cc1cccc(Cl)c1)C(=O)O; X4 = O=C(C(CCc1noc(=O)[nH]1)N[*:1])[*:2]; NMehPhe = CN[C@@H](CCc1ccccc1)C(=O)O; Ethyl(2-morpholino) = C1CN(CC*)CCO1; NMeF = CN[C@@H](Cc1ccccc1)C(=O)O; NMeGABA = CN(CCCC(=O)[*:2])[*:1]; NMeI = CC[C@H](C)[C@H](NC)C(=O)O; hPhe = N[C@@H](CCc1ccccc1)C(=O)O; NMeD = CN[C@@H](CC(=O)O)C(=O)O; CH2CH(OH)CF3 = OC(C*)C(F)(F)F; NMeL = CN[C@@H](CC(C)C)C(=O)O; NMeV = CN[C@H](C(=O)O)C(C)C; NMeAbu = CC[C@H](NC)C(=O)O; NMeA = CN[C@@H](C)C(=O)O; Piperidide = C1CCN(*)CC1; dNMeA = CN[C@H](C)C(=O)O; NBuGly = CCCCNCC(=O)O; X2 = Fc1cncc(C*)c1; Bn = c1ccc(C*)cc1; ξS = NC(CO)C(=O)O; Sar = CNCC(=O)O; tBu = CC(C)(C)*
Legend:
in vitro = settings: human, Caco-2, Caco-2 (cm/sec)
[1] = Membrane permeability test of cyclic peptides (Caco-2, modified/improved method of WO 2018/124162); settings: human
[2] = Caco-2, Caco-2, Papp, membrane permeability, cyclic peptides comprising MeAbu(pip-4-F2), MeAbu(Mor), Ser(Et-2-Mor), MeAbu(pip-3-F2) or Abu(5-Oxo-Odz) (Table 29)

Row | Structure (SMILES) | Papp (in vitro) [×10⁻⁶ cm/s] | Caco-2 (Caco-2) [cm/s] | also measured
1 | CCCCN1CC(=O)N(C)[C@@H](CC(C)C)C(=O)N[C@@H](COC(C)(C)C)C(=O)N(C)[C@@H]([C@@H](C)CC)C(=O)N(C)[C@@H](CC(C)C)C(=O)N[C@H](C(=O)N2CCCCC2)CC(=O)N[C@H](C)C(=O)N(C)[C@@H](Cc2ccccc2)C(=O)N[C@@H](Cc2ccc(C(=O)NO)c(OC)c2)C(=O)N(C)[C@@H](CC(C)C)C(=O)N[C@@H]([C@@H](C)O)C1=O [AP258] ([dA][NMeF][X1][NMeL]T[NBuGly][NMeL]S(tBu)[NMeI][NMeL]D-Piperidide; lactam N-11) | 0.03 | – | Caco-2 (Caco-2; human): 2e-08 cm/s
2 | CCCCN1CC(=O)N(C)[C@@H](CC(C)C)C(=O)N[C@@H](COC(C)(C)C)C(=O)N(C)[C@@H](Cc2ccccc2)C(=O)N(C)[C@@H](CC(C)C)C(=O)N[C@H](C(=O)N2CCCCC2)CC(=O)N[C@H](C(C)C)C(=O)N(C)[C@@H](Cc2ccccc2)C(=O)N[C@@H](COCC(O)C(F)(F)F)C(=O)N(C)[C@@H](CC(C)C)C(=O)N[C@@H]([C@@H](C)O)C1=O (stereo partly drawn) [Compound C01] ([dV][NMeF]S(CH2CH(OH)CF3)[NMeL]T[NBuGly][NMeL]S(tBu)[NMeF][NMeL]D-Piperidide; lactam N-11) | – | – | Caco-2 (membrane permeability) (Caco-2; human): 0.15 ×10⁻⁶ cm/s
3 | CCCCN1CC(=O)N(C)[C@@H](CC(C)C)C(=O)N[C@@H](COC(C)(C)C)C(=O)N(C)[C@@H](Cc2ccccc2)C(=O)N(C)[C@@H](CC(C)C)C(=O)N[C@H](C(=O)N2CCCCC2)CC(=O)N[C@H](C(C)C)C(=O)N(C)[C@@H](Cc2ccccc2)C(=O)N[C@@H](COCC(O)C(F)(F)F)C(=O)N(C)[C@@H](CC(C)C)C(=O)N[C@@H]([C@@H](C)O)C1=O (stereo partly drawn) [Compound D01] ([dV][NMeF]S(CH2CH(OH)CF3)[NMeL]T[NBuGly][NMeL]S(tBu)[NMeF][NMeL]D-Piperidide; lactam N-11) | – | – | Caco-2 (membrane permeability) (Caco-2; human): 0.07 ×10⁻⁶ cm/s
4 | CC(C)C[C@H]1C(=O)N[C@@H]([C@@H](C)O)C(=O)N(C)CC(=O)N(C)[C@@H](C(C)C)C(=O)N[C@@H](Cc2ccccc2)C(=O)N(C)[C@@H](Cc2cccc(Cl)c2)C(=O)N(C)[C@@H](CC(C)C)C(=O)N(C)[C@H](C(=O)N2CCCCC2)CC(=O)N2CCC[C@H]2C(=O)N[C@@H](Cc2ccccc2)C(=O)N[C@@H](COC(C)(C)C)C(=O)N1C [pd162] (PFS(tBu)[NMeL]T[Sar][NMeV]F[NMePhe(3-Cl)][NMeL][NMeD]-Piperidide; lactam N-11) | 1.2 | 1.2e-06 | –
5 | CC(C)C[C@H]1C(=O)N[C@@H]([C@@H](C)O)C(=O)N(C)CC(=O)N(C)[C@@H](C(C)C)C(=O)N[C@@H](Cc2ccccc2)C(=O)N(C)[C@@H](Cc2cccc(Cl)c2)C(=O)N(C)[C@@H](CC(C)C)C(=O)N(C)[C@H](C(=O)N2CCCCC2)CC(=O)N2CCC[C@@H]2C(=O)N[C@@H](Cc2ccccc2)C(=O)N[C@@H](COC(C)(C)C)C(=O)N1C [pd163] ([dP]FS(tBu)[NMeL]T[Sar][NMeV]F[NMePhe(3-Cl)][NMeL][NMeD]-Piperidide; lactam N-11) | 1.7 | 1.7e-06 | –
6 | CC(C)C[C@H]1C(=O)N[C@@H]([C@@H](C)O)C(=O)N(C)CC(=O)N(C)[C@@H](C(C)C)C(=O)N[C@@H](Cc2ccccc2)C(=O)N(C)[C@@H](Cc2cccc(Cl)c2)C(=O)N(C)[C@@H](CC(C)C)C(=O)N(C)[C@H](C(=O)N2CCCCC2)CC(=O)N(C)[C@H](C)C(=O)N[C@@H](Cc2ccccc2)C(=O)N[C@@H](COC(C)(C)C)C(=O)N1C [pd167] ([dNMeA]FS(tBu)[NMeL]T[Sar][NMeV]F[NMePhe(3-Cl)][NMeL][NMeD]-Piperidide; lactam N-11) | 1.7 | 1.7e-06 | –
7 | CC(C)C[C@H]1C(=O)N[C@@H]([C@@H](C)O)C(=O)N(C)CC(=O)N(C)[C@@H](Cc2ccccc2)C(=O)N(C)[C@@H](CC(C)C)C(=O)N[C@@H](COC(C)(C)C)C(=O)N(C)[C@@H](CC(C)C)C(=O)N[C@H](C(=O)N2CCCCC2)CC(=O)N(C)CC(=O)N(C)[C@@H](Cc2ccccc2)C(=O)N[C@@H](COCc2ccccc2)C(=O)N1C [pd177] ([Sar][NMeF]S(Bn)[NMeL]T[Sar][NMeF][NMeL]S(tBu)[NMeL]D-Piperidide; lactam N-11) | 3 | 3e-06 | –
8 | CC[C@H](C)[C@@H]1NC(=O)[C@H](Cc2ccccc2)N(C)C(=O)CN(C)C(=O)C[C@@H](C(=O)N2CCCCC2)NC(=O)[C@H]([C@@H](C)CC)N(C)C(=O)C(COCc2ccccc2)NC(=O)[C@H](CC(C)C)N(C)C(=O)[C@H](Cc2ccccc2)N(C)C(=O)CN(C)C(=O)[C@H]([C@@H](C)O)NC(=O)[C@H](CC(C)C)N(C)C1=O (stereo partly drawn) [pd178] ([Sar][NMeF]I[NMeL]T[Sar][NMeF][NMeL][ξS](Bn)[NMeI]D-Piperidide; lactam N-11) | 2.5 | 2.5e-06 | –
9 | CC(C)C[C@H]1C(=O)N[C@@H](COC(C)(C)C)C(=O)N(C)[C@@H](Cc2ccccc2)C(=O)N(C)[C@@H](C(C)C)C(=O)N[C@H](C(=O)N2CCCCC2)CC(=O)N[C@H](C(C)C)C(=O)N(C)[C@@H](Cc2ccccc2)C(=O)N[C@@H](COCc2cncc(F)c2)C(=O)N(C)[C@@H](CC(C)C)C(=O)N[C@@H]([C@@H](C)O)C(=O)N(C)CC(=O)N1C [pd180] ([dV][NMeF]S(X2)[NMeL]T[Sar][NMeL]S(tBu)[NMeF][NMeV]D-Piperidide; lactam N-11) | 2.4 | – | Caco-2 (cm/sec) (Caco-2): 2 4E−06 cm/sec
10 | CC[C@H](C)[C@H]1C(=O)N[C@@H]([C@@H](C)O)C(=O)N(C)CC(=O)N(C)[C@@H](CC(C)C)C(=O)N[C@H](C(=O)N2CCCCC2)CC(=O)N(C)[C@@H](C(C)C)C(=O)N[C@@H](COCc2cncc(F)c2)C(=O)N(C)[C@@H](CC(C)C)C(=O)N(C)[C@@H](Cc2ccccc2)C(=O)N[C@@H](CC(C)C)C(=O)N(C)[C@@H](Cc2ccccc2)C(=O)N1C [pd181] ([NMeV]S(X2)[NMeL][NMeF]L[NMeF][NMeI]T[Sar][NMeL]D-Piperidide; lactam N-11) | 1.1 | 1.1e-06 | –
11 | CC(C)C[C@H]1C(=O)N(C)[C@@H](Cc2ccccc2)C(=O)N[C@H](C(=O)N2CCCCC2)CC(=O)N(C)[C@@H](C(C)C)C(=O)N[C@@H](C)C(=O)N(C)[C@@H](Cc2ccccc2)C(=O)N(C)[C@@H](CC(C)C)C(=O)N(C)CC(=O)N[C@@H]([C@@H](C)O)C(=O)N(C)[C@@H](C(C)C)C(=O)N[C@@H](CCc2ccccc2)C(=O)N1C [pd182] ([NMeV]A[NMeF][NMeL][Sar]T[NMeV][hPhe][NMeL][NMeF]D-Piperidide; lactam N-11) | 2.6 | 2.6e-06 | –
12 | CC(C)C[C@H]1C(=O)N(C)[C@@H](Cc2ccccc2)C(=O)N[C@@H](COC(C)(C)C)C(=O)N(C)[C@@H](C)C(=O)N[C@H](C(=O)N2CCCCC2)CC(=O)N(C)[C@@H](C)C(=O)N(C)[C@@H](Cc2ccccc2)C(=O)N[C@@H](CCc2ccccc2)C(=O)N(C)[C@@H](CC(C)C)C(=O)N[C@@H]([C@@H](C)O)C(=O)N(C)CC(=O)N1C [pd183] ([NMeA][NMeF][hPhe][NMeL]T[Sar][NMeL][NMeF]S(tBu)[NMeA]D-Piperidide; lactam N-11) | 2.1 | 2.1e-06 | –
13 | CC(C)C[C@H]1C(=O)N(C)[C@@H](CCc2ccccc2)C(=O)N[C@@H](COC(C)(C)C)C(=O)N(C)[C@@H](C)C(=O)N[C@H](C(=O)N2CCCCC2)CC(=O)N(C)[C@@H](C)C(=O)N(C)[C@@H](Cc2ccccc2)C(=O)N[C@@H](CCc2ccccc2)C(=O)N(C)[C@@H](CC(C)C)C(=O)N[C@@H]([C@@H](C)O)C(=O)N(C)CC(=O)N1C [pd184] ([NMeA][NMeF][hPhe][NMeL]T[Sar][NMeL][NMehPhe]S(tBu)[NMeA]D-Piperidide; lactam N-11) | 1.2 | 1.2e-06 | –
14 | CC(C)C[C@@H]1NC(=O)[C@H](CC(C)C)N(C)C(=O)[C@H](C)N(C)C(=O)C[C@@H](C(=O)N2CCCCC2)NC(=O)[C@H](CC(C)C)N(C)C(=O)[C@H](Cc2ccccc2)N(C)C(=O)[C@H](Cc2ccccc2)N(C)C(=O)[C@H]([C@@H](C)O)NC(=O)[C@H](Cc2ccccc2)N(C)C1=O [pd211] ([NMeA][NMeL]L[NMeF]T[NMeF][NMeF][NMeL]D-Piperidide; lactam N-9) | – | – | Caco-2 (Caco-2; human): 1.4e-05 cm/s
15 | CC[C@H](C)[C@@H]1NC(=O)[C@@H](C)N(C)C(=O)C[C@@H](C(=O)N(C)[C@@H](Cc2ccccc2)C(=O)N[C@@H](C)C(=O)N2CCCCC2)NC(=O)[C@H](Cc2ccccc2)N(C)C(=O)CN(C)C(=O)[C@H]([C@@H](C)O)NC(=O)[C@H](C)N(C)C(=O)[C@H](C(C)C)N(C)C(=O)[C@H](Cc2ccccc2)NC(=O)[C@H](CC(C)C)N(C)C(=O)[C@H](CC(C)C)N(C)C1=O [pd222] ([dNMeA]I[NMeL][NMeL]F[NMeV][NMeA]T[Sar][NMeF]D[NMeF]A-Piperidide; lactam N-11) | – | – | Papp ([1]; Caco-2, Caco-2 (cm/sec), Table 36, Papp, sequences having Papp ≥ 1.0 × 10^−6 at ARC = 3): 1.1 ×10⁻⁶ cm/s
16 | CC[C@H](C)[C@@H]1NC(=O)[C@H](CC(C)C)N(C)C(=O)CCCN(C)C(=O)C[C@@H](C(=O)N2CCCCC2)NC(=O)[C@H](CC(C)C)N(C)C(=O)[C@H](CC(C)C)N(C)C(=O)[C@H](COCCN2CCOCC2)NC(=O)[C@H](CC(C)C)N(C)C(=O)[C@H](COC(C)(C)C)NC(=O)[C@H](CC)N(C)C(=O)[C@H](Cc2ccccc2)N(C)C1=O [pd485] ([NMeGABA][NMeL]I[NMeF][NMeAbu]S(tBu)[NMeL]S(Ethyl(2-morpholino))[NMeL][NMeL]D-Piperidide; lactam N-11) | – | – | Papp [1, 2]: 1.2 ×10⁻⁶ cm/s
17 | CCCCN1CC(=O)N(C)[C@@H](CC(C)C)C(=O)N[C@H](C(=O)N2CCCCC2)CC(=O)N(C)[C@@H](CC)C(=O)N[C@@H](CC(C)C)C(=O)N(C)[C@@H](CC(C)C)C(=O)N(C)[C@@H](Cc2ccccc2)C(=O)NC(CCc2noc(=O)[nH]2)C(=O)N(C)[C@@H](CC(C)C)C(=O)N(C)[C@@H](CC(C)C)C(=O)N[C@@H]([C@@H](C)O)C1=O (stereo partly drawn) [pd487] ([NMeAbu]L[NMeL][NMeF][X4][NMeL][NMeL]T[NBuGly][NMeL]D-Piperidide; lactam N-11) | – | – | Papp [1, 2]: 2.2 ×10⁻⁶ cm/s

— patent publication US20230096766A1, “AMINO ACID HAVING FUNCTIONAL GROUP CAPABLE OF INTERMOLECULAR HYDROGEN BONDING, PEPTIDE COMPOUND CONTAINING SAME AND METHOD FOR PRODUCTION THEREOF” (Chugai Seiyaku Kabushiki Kaisha, priority 2018, published 2023)
